Experimental data published in patent US12122780B2, “Pyrimidinyl group-containing tricyclic compound serving as c-Met inhibitor” (JIANGSU AOSAIKANG PHARMACEUTICAL CO., LTD., priority 2019, dated 2024).
Counter-ions that a name gives are not always drawn.

How the values were obtained:
c-Met enzyme = c-Met enzyme (Homo sapiens (Human), UniProt P08581); experiment: c-Met enzyme activity inhibition (Promega c-Met Kinase Enzyme System, ADP-Glo); type: biochemical; conditions: 10 μM ATP, 60 min, 30° C.
Procedure: To detect the inhibitory effect of the compounds on c-Met enzyme activity.
The c-Met Kinase Enzyme System was purchased from Promega. Envision multi-label analyzer (PerkinElmer).
The kinase buffer in the kit was used to dilute the enzyme, substrate, ATP and inhibitor.
The compound to be tested was diluted 5-fold to the eighth concentration with a discharge gun, i.e., from 50 μM to […], with a final DMSO concentration of 5%, and double duplicate wells experiment was set. 1 μL of each concentration gradient of the inhibitor, 2 μL of c-Met enzyme (4 ng), 2 μL of a mixture of the substrate and ATP (10 μM ATP, 0.2 μg/μL poly E4Y1) were added to the microplate, and the final concentration gradient of the compound of 10 μM was diluted to 0.13 nM. The reaction system was placed at 30° C. and the reaction was carried out for 60 minutes. When the reaction was completed, 5 μL of ADP-Glo reagent was added to each well and the reaction was carried out at 30° C. for another 40 minutes, when the reaction was completed, 10 μL of kinase detection reagent was added to each well, then the reaction was carried out at 30° C. for still another 30 minutes, chemiluminescence was read by the PerkinElmer Envision multi-label analyzer with an integration time of 0.5 seconds.
Using the equation (Sample-Min)/(Max-Min)*100% to convert the original data to the inhibition rate, the IC50 value can be obtained by curve fitting with four parameters (obtained by log(inhibitor) vs. response in GraphPad Prism—Variable slope mode).

Hs746T cells = experiment: Hs746T cell proliferation experiment (CellTiter-Glo); type: cell-based; conditions: Homo sapiens, 96 h, 4 days
Procedure: DMEM medium was purchased from Gibco, and fetal bovine serum was purchased from Hyclone. Hs746T cell line was purchased from ATCC. Envision multi-label analyzer (PerkinElmer).
Hs746T cells were seeded in a 384-well plate, 50 μL of cell suspension per well, which contained 1500 Hs746T cells. The cell plate was placed in a carbon dioxide incubator for overnight culture.
The compounds to be tested were 3-fold diluted into 9 concentrations with Tecan, double-duplicate well experiment was set, and the final compound concentrations added to the 384-well cell plate were 1000 nM to 0.15 nM. The cell plate was cultured in a carbon dioxide incubator for 4 days.
After 4 days, 25 μL of Promega CellTiter-Glo reagent was added to each well of this cell plate, and incubated at room temperature for 10 minutes to stabilize the luminescence signal. Readings were taken using a PerkinElmer Envision multi-label analyzer.
The action curves of the compounds were automatically fitted using Xlfit software and the values of IC50 were calculated, High control was the values of DMSO-treated wells and Low control was the values of cell-free medium wells.

[1] = tested on: human lung cancer EBC-1 xenograft tumor; experiment: In vivo drug efficacy, human lung cancer EBC-1 xenograft tumor in nude mice; design: species or system BALB/c nude mice; conditions: for Tumor volume: n = 6; for TGI (tumor growth inhibition rate) / TRTV/CRTV (relative tumor proliferation rate T/C): 25th day
Procedure: BALB/c nude mice, female, 6-8 weeks old, weighing about 18-20 grams, animals were raised in SPF-class animal rooms in IVC (independent air supply system, constant temperature and humidity) cages (3 per cage). All cages, bedding and water were disinfected before use. All animals had free access to standard certified commercial laboratory diets. A total of 36 mice purchased from Shanghai Lingchang Biotechnology Co., Ltd. were used for research. Each animal was inoculated with 0.1 mL (5×10^6 cells) of EBC-1 cells on the right back, when the average tumor volume reached 243 mm^3, the animals were randomly grouped and the administration was started. The test compound was orally administered daily, the dose of hydrochloride of compound 24 was 10 mg/kg, the two doses of hydrochloride of compound 25 were 10 mg/kg and 20 mg/kg, respectively, and the dose of hydrochloride of compound 29 was 10 mg/kg. The tumor diameter was measured with vernier calipers twice a week. The calculation formula of tumor volume was: V=0.5a×b^2, a and b represented the long diameter and short diameter of the tumor, respectively. The anti-tumor efficacy of the compound was evaluated by TGI (%) or the relative tumor proliferation rate T/C (%). Relative tumor proliferation rate T/C (%)=TRTV/CRTV×100% (TRTV: average RTV in the treatment group; CRTV: average RTV in the negative control group). The relative tumor volume (RTV) was calculated according to the results of tumor measurement, the calculation formula was RTV=Vt/V0, wherein V0 was the tumor volume measured at the time of the grouping administration (i.e. D0), Vt was the tumor volume at a certain measurement, and TRTV and CRTV were taken on the same day. TGI (%) reflected the tumor growth inhibition rate. TGI (%)=[(1−(average tumor volume of a certain treatment group after administration-average tumor volume of the treatment group at the beginning of administration))/(average tumor volume of the solvent control group after the administration-average tumor volume of the solvent control group at the beginning of the administration)]×100%. Statistical analysis was performed based on RTV data at the end of the experiment, and SPSS software was used for analysis.

c-Met enzyme, sequence (P08581 956-1390): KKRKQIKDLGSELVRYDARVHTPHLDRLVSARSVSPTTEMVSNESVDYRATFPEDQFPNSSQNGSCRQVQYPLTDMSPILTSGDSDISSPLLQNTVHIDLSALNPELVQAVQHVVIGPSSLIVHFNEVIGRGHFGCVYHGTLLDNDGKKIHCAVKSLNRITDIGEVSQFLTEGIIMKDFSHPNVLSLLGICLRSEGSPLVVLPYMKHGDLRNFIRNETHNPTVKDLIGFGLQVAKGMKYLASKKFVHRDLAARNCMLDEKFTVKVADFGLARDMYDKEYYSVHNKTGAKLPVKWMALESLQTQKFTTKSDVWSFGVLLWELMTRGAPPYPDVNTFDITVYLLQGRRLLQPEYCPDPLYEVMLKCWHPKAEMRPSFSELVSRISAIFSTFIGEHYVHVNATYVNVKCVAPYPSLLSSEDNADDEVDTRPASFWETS

## CC(C)N1CCC(COc2cnc(-c3cccc(Cn4c(=O)ccn5c6cc(C#N)ccc6nc45)c3)nc2)CC1 [Hydrochloride of compound 25]
c-Met enzyme
  IC50: 2.75 nM
Hs746T cells
  IC50: 2.2 nM
[1]; 10 mg/kg oral daily (stopped after 15 days), day 18, mean ± standard error
  Tumor volume: 34 ± 4 mm^3
[1]; 10 mg/kg oral daily (stopped after 15 days), day 21, mean ± standard error
  Tumor volume: 44 ± 6 mm^3
[1]; 10 mg/kg oral daily (stopped after 15 days), day 25, mean ± standard error
  Tumor volume: 83 ± 11 mm^3
[1]; 10 mg/kg oral daily (stopped after 15 days), day 25, mean ± standard error, listed as hydrochloride of compound 25
  Tumor volume: 83 mm^3
[1]; 10 mg/kg oral daily (stopped after 15 days), day 27, mean ± standard error
  Tumor volume: 120 ± 25 mm^3
[1]; 10 mg/kg oral daily
  TGI (tumor growth inhibition rate): 108.9%
  TRTV/CRTV (relative tumor proliferation rate T/C): 4.3%
[1]; 10 mg/kg oral daily, day 0, mean ± standard error
  Tumor volume: 243 ± 21 mm^3
[1]; 10 mg/kg oral daily, day 4, mean ± standard error
  Tumor volume: 247 ± 20 mm^3
[1]; 10 mg/kg oral daily, day 7, mean ± standard error
  Tumor volume: 162 ± 13 mm^3
[1]; 10 mg/kg oral daily, day 11, mean ± standard error
  Tumor volume: 67 ± 9 mm^3
[1]; 10 mg/kg oral daily, day 14, mean ± standard error
  Tumor volume: 46 ± 5 mm^3
[1]; 20 mg/kg oral daily (stopped after 15 days), day 18, mean ± standard error
  Tumor volume: 4 ± 0 mm^3
[1]; 20 mg/kg oral daily (stopped after 15 days), day 21, mean ± standard error
  Tumor volume: 4 ± 0 mm^3
[1]; 20 mg/kg oral daily (stopped after 15 days), day 25, mean ± standard error
  Tumor volume: 4 ± 0 mm^3
[1]; 20 mg/kg oral daily (stopped after 15 days), day 25, mean ± standard error, listed as hydrochloride of compound 25
  Tumor volume: 4 mm^3
[1]; 20 mg/kg oral daily (stopped after 15 days), day 27, mean ± standard error
  Tumor volume: 2 ± 1 mm^3
[1]; 20 mg/kg oral daily
  TGI (tumor growth inhibition rate): 113.4%
  TRTV/CRTV (relative tumor proliferation rate T/C): 0.2%
[1]; 20 mg/kg oral daily, day 0, mean ± standard error
  Tumor volume: 244 ± 22 mm^3
[1]; 20 mg/kg oral daily, day 4, mean ± standard error
  Tumor volume: 174 ± 12 mm^3
[1]; 20 mg/kg oral daily, day 7, mean ± standard error
  Tumor volume: 100 ± 8 mm^3
[1]; 20 mg/kg oral daily, day 11, mean ± standard error
  Tumor volume: 32 ± 3 mm^3
[1]; 20 mg/kg oral daily, day 14, mean ± standard error
  Tumor volume: 12 ± 3 mm^3

## CC(C)(O)CN1CCC(COc2cnc(-c3cccc(Cn4c(=O)ccn5c6cc(C#N)ccc6nc45)c3)nc2)CC1 [Hydrochloride of compound 39]
c-Met enzyme
  IC50: 5.51 nM
Hs746T cells
  IC50: 1.5 nM
